# Results reported in patent publication US6087355A, “Cephalosporin antibiotics” (Microcide Pharmaceuticals, Inc., priority 1996, dated 2000).
# Where a name gives a salt, the structure may show the parent alone.
# How the values were obtained:
# Experiment in all cases: In vitro MIC, agar dilution
# Assay type in all cases: cell-based
# [1] = system: S. aureus Col8A(Meth^S)(lac^-); details: S. aureus Col8A(Meth^S)(lac^-); for MIC: Staphylococcus aureus, read-out: minimum inhibitory concentration (MIC)
# Summary of the method: (§1)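 Two-fold dilutions (128 to ≤0.25 μg/mL, in duplicate) were poured into Mueller-Hinton agar. Log-phase broth cultures were spot-inoculated at about 10^4 cfu per spot and incubated 35-36°C for 16-20 hours; the MIC was the lowest concentration inhibiting growth. Col is a high-level PBP2a producer; Col 8A is its isogenic PBP2a-lacking partner.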
# [2] = system: S. aureus Col(Meth^R)(lac^-); details: for MIC: Staphylococcus aureus, read-out: minimum inhibitory concentration (MIC)
# Summary of the method: as §1
# S. aureus ATCC 29213 = details: for MIC: Staphylococcus aureus, ATCC29213, read-out: minimum inhibitory concentration (MIC)
# Summary of the method: (§2)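 Strains were spotted at roughly 10^4 cfu onto drug-containing Mueller-Hinton agar. MIC was read as the lowest inhibitory concentration after overnight incubation at 35-36 °C.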
# [3] = system: S. aureus ATCC 13709(Meth^S); details: for MIC: Staphylococcus aureus, ATCC13709, S. aureus ATCC 13709(Meth^S), read-out: minimum inhibitory concentration (MIC); for minimum inhibitory concentration (MIC): S. aureus ATCC 13709(Meth^S)
# Summary of the method: as §2
# E. faecium VanA(Van^R) = details: for MIC: Enterococcus faecium, read-out: minimum inhibitory concentration (MIC)
# Summary of the method: as §2
# [4] = system: S. haemolyticus 05(Meth^R); details: for MIC: Staphylococcus haemolyticus, read-out: minimum inhibitory concentration (MIC)
# Summary of the method: as §2
# [5] = system: S. aureus 76(Meth^R)(lac^+); details: for MIC: Staphylococcus aureus, read-out: minimum inhibitory concentration (MIC)
# Summary of the method: as §2
# E. faecalis VanB(Van^R) = details: for MIC: Enterococcus faecalis, read-out: minimum inhibitory concentration (MIC)
# Summary of the method: as §2
# E. coli ATCC 25992 = details: for MIC: Escherichia coli, ATCC25992, read-out: minimum inhibitory concentration (MIC)
# Summary of the method: as §2
# [6] = system: S. aureus ATCC 33593(Meth^R); details: for MIC: Staphylococcus aureus, ATCC33593, read-out: minimum inhibitory concentration (MIC)
# Summary of the method: as §2
# P. aeruginosa ATCC 27853 = details: for MIC: Pseudomonas aeruginosa, ATCC27853, read-out: minimum inhibitory concentration (MIC)
# Summary of the method: as §2
# E. faecalis ATCC 29212 = details: for MIC: Enterococcus faecalis, ATCC29212, read-out: minimum inhibitory concentration (MIC)
# Summary of the method: as §2
# E. faecium A491(Amp^R) = details: for MIC: Enterococcus faecium, read-out: minimum inhibitory concentration (MIC)
# Summary of the method: as §2
# [7] = system: S. aureus PC1(Meth^S)(lac^+); details: for MIC: Staphylococcus aureus, read-out: minimum inhibitory concentration (MIC)
# Summary of the method: as §2
# E. faecium ATCC 35667 = details: for MIC: Enterococcus faecium, ATCC35667, read-out: minimum inhibitory concentration (MIC)
# Summary of the method: as §2
# [8] = system: S. aureus Spain #356(Meth^R); details: for MIC: Staphylococcus aureus, read-out: minimum inhibitory concentration (MIC)
# Summary of the method: as §2
Compound,MIC [1],MIC [2],MIC (S. aureus ATCC 29213),MIC [3],MIC (E. faecium VanA(Van^R)),MIC [4],MIC [5],MIC (E. faecalis VanB(Van^R)),MIC (E. coli ATCC 25992),MIC [6],MIC (P. aeruginosa ATCC 27853),MIC (E. faecalis ATCC 29212),MIC (E. faecium A491(Amp^R)),MIC [7],MIC (E. faecium ATCC 35667),MIC [8],further results
"Nc1nc(/C(=N/O)C(=O)N[C@@H]2C(=O)N3C(C(=O)O)=C(Sc4ccncc4CSC4CCNC4)CS[C@H]23)c(Cl)s1 (stereo partly drawn) [Cmpd 42, (7R)-7-[(Z)-2-(2-amino-5-chlorothiazol-4-yl)-2-(hydroxyimino)acetamido]-3-(3-(pyrrolidin-3-ylthiomethyl)pyrid-4-ylthio)-3-cephem-4-carboxylate, trifluoroacetic acid salt]",0.25 µg/mL,0.5 µg/mL,0.13 µg/mL,0.13 µg/mL,0.5 µg/mL,2 µg/mL,1 µg/mL,≤ 0.06 µg/mL,2 µg/mL,1 µg/mL,32 µg/mL,≤ 0.06 µg/mL,4 µg/mL,0.13 µg/mL,0.25 µg/mL,1 µg/mL,–
"CNCC(=O)NCCSCc1cnccc1SC1=C(C(=O)O)N2C(=O)[C@@H](NC(=O)/C(=N\O)c3nc(N)sc3Cl)[C@H]2SC1 [Cmpd 43, (7R)-7-[(Z)-2-(2-amino-5-chlorothiazol-4-yl)-2-(hydroxyimino)acetamido]-3-[3-(N-methylglycyl)aminoethylthiomethylpyrid-4-ylthio]-3-cephem-4-carboxylate, trifluoroacetic acid salt]",0.5 µg/mL,2 µg/mL,0.5 µg/mL,0.5 µg/mL,1 µg/mL,4 µg/mL,2 µg/mL,0.25 µg/mL,8 µg/mL,2 µg/mL,> 32 µg/mL,0.13 µg/mL,8 µg/mL,1 µg/mL,1 µg/mL,2 µg/mL,–
"NC/C=C\Cc1cnccc1SC1=C(C(=O)O)N2C(=O)[C@@H](NC(=O)/C(=N\O)c3nc(N)sc3Cl)[C@H]2SC1.O=C(O)C(F)(F)F [Cmpd 50, (7R)-7-[(Z)-2-(2-amino-5-chlorothiazol-4-yl)-2-(hydroxyimino)acetamido]-3-(3-(4-amino-2-Z-buten-1-yl)pyrid-4-ylthio)-3-cephem-4-carboxylate, trifluoroacetic acid salt]",–,–,–,–,–,–,–,–,–,–,–,–,–,–,–,–,minimum inhibitory concentration (MIC) [1]: 0.25 µg/mL; minimum inhibitory concentration (MIC) [2]: 2 µg/mL; minimum inhibitory concentration (MIC) (S. aureus ATCC 29213): 0.13 µg/mL; minimum inhibitory concentration (MIC) [3]: 0.13 µg/mL; minimum inhibitory concentration (MIC) (E. faecium VanA(Van^R)): 2 µg/mL; minimum inhibitory concentration (MIC) [4]: 4 µg/mL; minimum inhibitory concentration (MIC) [5]: 2 µg/mL; minimum inhibitory concentration (MIC) (E. faecalis VanB(Van^R)): 0.5 µg/mL; minimum inhibitory concentration (MIC) (E. coli ATCC 25992): 4 µg/mL; minimum inhibitory concentration (MIC) [6]: 2 µg/mL; minimum inhibitory concentration (MIC) (P. aeruginosa ATCC 27853): > 32 µg/mL; minimum inhibitory concentration (MIC) (E. faecalis ATCC 29212): 0.13 µg/mL; minimum inhibitory concentration (MIC) (E. faecium A491(Amp^R)): 16 µg/mL; minimum inhibitory concentration (MIC) [7]: 0.25 µg/mL; minimum inhibitory concentration (MIC) (E. faecium ATCC 35667): 1 µg/mL; minimum inhibitory concentration (MIC) [8]: 2 µg/mL
"Nc1nc(/C(=N/O)C(=O)N[C@@H]2C(=O)N3C(C(=O)O)=C(Sc4ccncc4CSC4CCNCC4)CS[C@H]23)c(Cl)s1 [Cmpd 52, (7R)-7-[(Z)-2-(2-amino-5-chlorothiazol-4-yl)-2-(hydroxyimino)acetamido]-3-(3-(piperidine-4-ylthiomethyl)pyrid-4-ylthio)-3-cephem-4-carboxylate, trifluoroacetic acid salt]",0.25 µg/mL,2 µg/mL,0.5 µg/mL,0.5 µg/mL,1 µg/mL,2 µg/mL,2 µg/mL,0.13 µg/mL,2 µg/mL,2 µg/mL,> 32 µg/mL,≤ 0.06 µg/mL,4 µg/mL,0.5 µg/mL,≤ 0.06 µg/mL,2 µg/mL,–
"NCC[S+]([O-])Cc1cnccc1SC1=C(C(=O)O)N2C(=O)[C@@H](NC(=O)/C(=N\O)c3nc(N)sc3Cl)[C@H]2SC1 (stereo partly drawn) [Cmpd 53, (7R)-7-[(Z)-2-(2-amino-5-chlorothiazol-4-yl)-2-(hydroxyimino)acetamido]-3-(3-aminoethylsulfinylmethylpyrid-4-ylthio)-3-cephem-4-carboxylate, trifluoroacetic acid salt]",0.5 µg/mL,4 µg/mL,0.5 µg/mL,0.25 µg/mL,2 µg/mL,4 µg/mL,4 µg/mL,0.25 µg/mL,4 µg/mL,2 µg/mL,> 32 µg/mL,0.13 µg/mL,16 µg/mL,1 µg/mL,1 µg/mL,4 µg/mL,–
"CN(C)C(=O)[C@@H]1CC(SCc2cnccc2SC2=C(C(=O)O)N3C(=O)[C@@H](NC(=O)/C(=N\O)c4nc(N)sc4Cl)[C@H]3SC2)CN1 (stereo partly drawn) [Cmpd 55, (7R)-7-[(Z)-2-(2-amino-5-chlorothiazol-4-yl)-2-(hydroxyimino)acetamido]-3-(3-(5S-5-N,N-dimethylcarboxamidopyrrolidin-3-ylthiomethyl)pyrid-4-ylthio)-3-cephem-4-carboxylate, trifluoroacetic acid salt]",0.5 µg/mL,4 µg/mL,0.5 µg/mL,0.25 µg/mL,2 µg/mL,4 µg/mL,4 µg/mL,0.5 µg/mL,8 µg/mL,2 µg/mL,> 32 µg/mL,0.25 µg/mL,16 µg/mL,1 µg/mL,0.5 µg/mL,4 µg/mL,–
"Nc1nc(/C(=N/O)C(=O)N[C@@H]2C(=O)N3C(C(=O)O)=C(Sc4ccncc4CSCCNC=O)CS[C@H]23)c(Cl)s1 [Cmpd 63, (7R)-7-[(Z)-2-(2-amino-5-chlorothiazol-4-yl)-2-(hydroxyimino)acetamido]-3-(3-(N-formylaminoethylthiomethyl)pyrid-4-ylthio)-3-cephem-4-carboxylate, trifluoroacetic acid salt]",0.13 µg/mL,2 µg/mL,0.25 µg/mL,0.25 µg/mL,1 µg/mL,2 µg/mL,2 µg/mL,0.25 µg/mL,16 µg/mL,2 µg/mL,> 32 µg/mL,0.13 µg/mL,16 µg/mL,0.25 µg/mL,0.5 µg/mL,4 µg/mL,–
"(7R)-7-[(Z)-2-(aminothiazol-4-yl)-2-(hydroxyimino)acetamido]-3-[(guanidinoethylaminoethylthiomethyl)-1,2,3-thiadiazol-5-ylthio]-3-cephem-4-carboxylate, trifluoroacetic acid salt [Cmpd 12]",–,–,–,–,–,–,–,–,–,–,–,–,–,–,–,–,minimum inhibitory concentration (MIC) [1]: 0.5 µg/mL; minimum inhibitory concentration (MIC) [2]: 2 µg/mL; minimum inhibitory concentration (MIC) (S. aureus ATCC 29213): 0.5 µg/mL; minimum inhibitory concentration (MIC) [3]: 0.25 µg/mL; minimum inhibitory concentration (MIC) (E. faecium VanA(Van^R)): 4 µg/mL; minimum inhibitory concentration (MIC) [4]: 2 µg/mL; minimum inhibitory concentration (MIC) [5]: 2 µg/mL; minimum inhibitory concentration (MIC) (E. faecalis VanB(Van^R)): 0.5 µg/mL; minimum inhibitory concentration (MIC) (E. coli ATCC 25992): 8 µg/mL; minimum inhibitory concentration (MIC) [6]: 2 µg/mL; minimum inhibitory concentration (MIC) (P. aeruginosa ATCC 27853): > 32 µg/mL; minimum inhibitory concentration (MIC) (E. faecalis ATCC 29212): 0.25 µg/mL; minimum inhibitory concentration (MIC) (E. faecium A491(Amp^R)): > 32 µg/mL; minimum inhibitory concentration (MIC) [7]: 0.5 µg/mL; minimum inhibitory concentration (MIC) (E. faecium ATCC 35667): 1 µg/mL; minimum inhibitory concentration (MIC) [8]: 2 µg/mL
